Source: patent publication US20250145606A1 (Arcus Biosciences, Inc., priority 2023, published 2025)
Like-named read-outs stand apart in the source and are kept apart here.

Key:
PDGFRβ = PDGFRβ (Homo sapiens (Human), UniProt P09619); assay: Inhibition of PDGFRβ kinase activity (HTRF KinEASE-TK); conditions: biochemical, HTRF KinEASE-TK
Method in brief: (§1)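 Recombinant kinases (2 nM CSF1R and c-Kit, 10 nM PDGFRα/β, 2× working) preincubated 1 h with compound in 50 mM HEPES pH 7.4, 5 mM MgCl2 (c-Kit) or 10 mM (others), 2 mM MnCl2; 2× ATP: c-Kit 16 μM, PDGFRα 1 μM, PDGFRβ 40 μM, CSF1R 20 μM. 120 min reaction at rt; TR-FRET 665/620 nm; IC50 by 4-parameter fit.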

[1] = system: Phospho-KIT (Y703) in M07e cells; assay: Phospho-KIT (Y703) cellular assay in M07e cells; type: cell-based; conditions: M-07e
Description: Phospho-KIT (Y703) Cellular Assay in M07e Cells
The day prior to assay, M07e cells (DSMZ, catalog #ACC 104) were serum starved. Cells were centrifuged and cell pellet resuspended in OptiMEM (Gibco, catalog #31985062) to a density of 1×10^6-2.5×10^6 cells per mL. Cells were then incubated overnight at 5% CO2 and 37° C. in an appropriately sized flask. On the day of the experiment, an 11 point, half log titration of test compound was pre-dispensed into 96-well round bottom polypropylene plates (Corning, catalog #3365). The serum starved M07e cells were centrifuged and resuspended to a cell density of 1×10^6 cells per mL with DPBS (Gibco, catalog #14190-144). Live/Dead Green Fixable viability dye (Invitrogen, catalog #L34970) was added as 1 μL/1 mL of cell suspension. Cells were then incubated in the dark at 4° C. for 30 min. Cells were washed by centrifugation and resuspension with DPBS+0.5% BSA (Gemini Bio Products, catalog #700110/100, 30% BSA solution). Cells were resuspended, separated into two equal volumes and again centrifuged. Cell pellets were resuspended with OptiMEM™ to a cell density of 1×10^6 cells per mL. Cells were then added to the appropriate compound plate at 100,000 cells per well in 100 μL and mixed. Plates were incubated at 5% CO2 and 37° C. for 50 min. Stem Cell Factor, SCF (R&D Systems, #255-SC/CF) was diluted in OptiMEM to 1 μg/mL and added to all wells as 10 μL for a final concentration of 90.9 ng/mL. Plates were incubated at 5% CO2 and 37° C. for 10 min. Incubation was stopped by addition of 110 μL 4% paraformaldehyde solution in PBS (Life Technologies, catalog #J19943.K2). Plates were incubated at rt for at least 15 min. Plates were then centrifuged and supernatant removed by flicking. Cells were washed once by resuspension in 200 μL DPBS+0.5% BSA, centrifuged, and supernatant removed by flicking. Cells were resuspended in 100 μL 1X Permeabilization buffer (Invitrogen, catalog #88882400) and plates incubated at rt for 30 min. Plates were centrifuged, supernatant removed by flicking, and cells resuspended in 50 μL primary antibody, anti-phospho-c-KIT (Tyr703) (Cell Signaling, catalog #3073), diluted to 1 μg/mL with permeabilization buffer. Plates were incubated at rt for 1 h. Plates were centrifuged, supernatant removed, and cells resuspended with 200 μL DPBS+0.5% BSA. Plates were again centrifuged, supernatant removed by flicking, and cells resuspended in 100 μL secondary antibody, goat anti-rabbit AlexaFluor647 (AF647) (Invitrogen, catalog #A21244) diluted to 1 μg/mL with DPBS+0.5% BSA. Plates were incubated at rt for 30 min. followed by centrifugation, supernatant removal, and cell resuspension with 200 μL DPBS+0.5% BSA. Cells were washed again by centrifugation, supernatant removal, and cell resuspension with 200 μL DPBS+0.5% BSA. Samples were then read by flow cytometry. The Forward: Side scatter plot was gated and that population was gated for live cells based on the Live/Dead Green staining. The geometric mean of AF647 of the live cell population was recorded. Percentage maximum activity in each test well was calculated based on DMSO (100% activity) and positive control treated cell wells (0% activity). The potencies (IC50 values) of test compounds were determined using a standard 4-parameter non-linear regression fit.

CSF1R = CSF1R (Homo sapiens (Human), UniProt P07333); assay: Inhibition of CSF1R kinase activity (HTRF KinEASE-TK); conditions: biochemical, HTRF KinEASE-TK
Method in brief: as §1

c-Kit = c-Kit (Homo sapiens (Human), UniProt P10721); assay: Inhibition of c-Kit kinase activity (HTRF KinEASE-TK); type: biochemical; conditions: biochemical, HTRF KinEASE-TK
Method in brief: as §1

PDGFRα = PDGFRα (Homo sapiens (Human), UniProt P16234); assay: Inhibition of PDGFRα kinase activity (HTRF KinEASE-TK); conditions: biochemical, HTRF KinEASE-TK
Method in brief: as §1

[2] = M07e cells, read-out: Phospho-KIT (Y703) cellular IC50
[3] = Phospho-KIT (Y703), M07e cells, read-out: M07e Cell IC50

Sequence of CSF1R (P07333 20-972): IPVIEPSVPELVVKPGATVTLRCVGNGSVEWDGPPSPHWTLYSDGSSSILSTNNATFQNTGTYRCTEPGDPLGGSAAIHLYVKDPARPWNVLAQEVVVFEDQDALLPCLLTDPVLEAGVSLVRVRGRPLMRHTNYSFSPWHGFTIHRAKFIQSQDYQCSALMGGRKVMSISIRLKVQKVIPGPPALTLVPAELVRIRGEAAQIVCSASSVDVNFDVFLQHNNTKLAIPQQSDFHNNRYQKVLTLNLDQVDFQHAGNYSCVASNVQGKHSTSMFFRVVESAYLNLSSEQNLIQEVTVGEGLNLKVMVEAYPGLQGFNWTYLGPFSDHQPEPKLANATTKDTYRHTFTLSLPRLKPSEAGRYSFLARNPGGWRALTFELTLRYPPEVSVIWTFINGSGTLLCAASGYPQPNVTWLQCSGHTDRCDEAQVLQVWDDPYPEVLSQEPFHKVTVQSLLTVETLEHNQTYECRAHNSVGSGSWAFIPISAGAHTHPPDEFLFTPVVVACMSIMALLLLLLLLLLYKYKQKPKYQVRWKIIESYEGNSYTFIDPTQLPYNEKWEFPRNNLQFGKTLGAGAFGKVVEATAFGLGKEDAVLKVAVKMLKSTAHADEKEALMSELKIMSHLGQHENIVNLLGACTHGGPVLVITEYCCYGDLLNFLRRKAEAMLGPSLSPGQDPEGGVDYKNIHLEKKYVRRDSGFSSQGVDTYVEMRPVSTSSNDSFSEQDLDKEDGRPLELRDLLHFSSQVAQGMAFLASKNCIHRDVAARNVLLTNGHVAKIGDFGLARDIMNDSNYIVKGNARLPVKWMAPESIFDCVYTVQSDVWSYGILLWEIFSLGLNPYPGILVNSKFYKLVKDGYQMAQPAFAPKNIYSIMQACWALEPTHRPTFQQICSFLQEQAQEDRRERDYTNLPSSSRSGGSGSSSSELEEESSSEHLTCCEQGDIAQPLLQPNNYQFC
Sequence of PDGFRβ (P09619 33-1106): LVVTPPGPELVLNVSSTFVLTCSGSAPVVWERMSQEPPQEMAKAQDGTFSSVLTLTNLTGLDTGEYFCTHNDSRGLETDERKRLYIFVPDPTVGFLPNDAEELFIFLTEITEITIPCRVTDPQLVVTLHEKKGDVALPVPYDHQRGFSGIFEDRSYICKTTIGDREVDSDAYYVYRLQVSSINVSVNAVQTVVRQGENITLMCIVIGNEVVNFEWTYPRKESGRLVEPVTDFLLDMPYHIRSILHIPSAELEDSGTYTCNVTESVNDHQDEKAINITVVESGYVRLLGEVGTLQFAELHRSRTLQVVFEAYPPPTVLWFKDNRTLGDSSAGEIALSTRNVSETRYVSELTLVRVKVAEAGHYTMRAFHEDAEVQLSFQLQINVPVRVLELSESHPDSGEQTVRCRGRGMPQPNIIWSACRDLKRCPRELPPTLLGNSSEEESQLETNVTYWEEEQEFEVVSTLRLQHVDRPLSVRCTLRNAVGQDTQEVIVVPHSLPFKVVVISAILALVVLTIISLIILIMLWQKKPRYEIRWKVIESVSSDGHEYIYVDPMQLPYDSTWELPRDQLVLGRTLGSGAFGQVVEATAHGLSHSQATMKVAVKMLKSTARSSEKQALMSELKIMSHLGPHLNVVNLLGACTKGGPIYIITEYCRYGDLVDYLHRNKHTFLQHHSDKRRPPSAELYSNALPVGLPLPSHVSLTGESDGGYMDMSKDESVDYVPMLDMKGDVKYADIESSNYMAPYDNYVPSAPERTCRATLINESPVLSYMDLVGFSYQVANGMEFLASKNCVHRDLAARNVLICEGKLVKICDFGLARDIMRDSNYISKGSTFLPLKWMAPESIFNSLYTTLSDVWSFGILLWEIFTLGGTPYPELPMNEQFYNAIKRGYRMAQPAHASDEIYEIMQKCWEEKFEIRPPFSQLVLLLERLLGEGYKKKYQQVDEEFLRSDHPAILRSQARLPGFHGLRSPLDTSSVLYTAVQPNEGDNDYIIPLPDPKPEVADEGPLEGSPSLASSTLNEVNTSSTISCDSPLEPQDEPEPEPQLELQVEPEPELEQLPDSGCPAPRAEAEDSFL
Sequence of PDGFRα (P16234 24-1089): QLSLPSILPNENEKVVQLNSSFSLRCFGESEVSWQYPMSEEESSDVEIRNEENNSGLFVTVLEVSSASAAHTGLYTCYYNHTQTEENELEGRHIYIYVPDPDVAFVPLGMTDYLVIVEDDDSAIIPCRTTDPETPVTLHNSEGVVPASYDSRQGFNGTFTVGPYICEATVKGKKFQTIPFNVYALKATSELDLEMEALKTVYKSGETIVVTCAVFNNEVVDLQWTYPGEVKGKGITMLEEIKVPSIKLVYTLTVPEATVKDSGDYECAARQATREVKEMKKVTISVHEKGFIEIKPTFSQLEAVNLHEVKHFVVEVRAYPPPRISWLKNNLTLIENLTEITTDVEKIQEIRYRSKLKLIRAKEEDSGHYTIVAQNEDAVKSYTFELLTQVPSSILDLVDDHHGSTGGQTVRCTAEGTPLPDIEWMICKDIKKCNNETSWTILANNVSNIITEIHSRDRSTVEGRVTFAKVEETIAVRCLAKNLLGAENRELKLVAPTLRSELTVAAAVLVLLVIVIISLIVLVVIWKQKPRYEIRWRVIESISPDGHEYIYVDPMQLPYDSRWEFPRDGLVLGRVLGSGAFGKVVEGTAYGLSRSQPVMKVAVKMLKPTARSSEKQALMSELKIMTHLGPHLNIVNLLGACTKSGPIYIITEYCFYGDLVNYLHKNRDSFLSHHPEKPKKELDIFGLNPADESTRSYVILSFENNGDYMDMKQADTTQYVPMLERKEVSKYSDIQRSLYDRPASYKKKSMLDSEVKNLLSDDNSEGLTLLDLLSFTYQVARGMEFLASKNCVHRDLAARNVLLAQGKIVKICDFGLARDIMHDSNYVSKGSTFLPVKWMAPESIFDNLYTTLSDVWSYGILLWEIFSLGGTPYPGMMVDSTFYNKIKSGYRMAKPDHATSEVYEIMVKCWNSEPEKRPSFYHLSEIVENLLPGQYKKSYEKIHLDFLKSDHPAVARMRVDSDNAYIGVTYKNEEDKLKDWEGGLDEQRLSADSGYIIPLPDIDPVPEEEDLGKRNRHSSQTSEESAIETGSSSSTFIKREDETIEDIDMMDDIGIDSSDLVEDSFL
Sequence of c-Kit (P10721 26-976): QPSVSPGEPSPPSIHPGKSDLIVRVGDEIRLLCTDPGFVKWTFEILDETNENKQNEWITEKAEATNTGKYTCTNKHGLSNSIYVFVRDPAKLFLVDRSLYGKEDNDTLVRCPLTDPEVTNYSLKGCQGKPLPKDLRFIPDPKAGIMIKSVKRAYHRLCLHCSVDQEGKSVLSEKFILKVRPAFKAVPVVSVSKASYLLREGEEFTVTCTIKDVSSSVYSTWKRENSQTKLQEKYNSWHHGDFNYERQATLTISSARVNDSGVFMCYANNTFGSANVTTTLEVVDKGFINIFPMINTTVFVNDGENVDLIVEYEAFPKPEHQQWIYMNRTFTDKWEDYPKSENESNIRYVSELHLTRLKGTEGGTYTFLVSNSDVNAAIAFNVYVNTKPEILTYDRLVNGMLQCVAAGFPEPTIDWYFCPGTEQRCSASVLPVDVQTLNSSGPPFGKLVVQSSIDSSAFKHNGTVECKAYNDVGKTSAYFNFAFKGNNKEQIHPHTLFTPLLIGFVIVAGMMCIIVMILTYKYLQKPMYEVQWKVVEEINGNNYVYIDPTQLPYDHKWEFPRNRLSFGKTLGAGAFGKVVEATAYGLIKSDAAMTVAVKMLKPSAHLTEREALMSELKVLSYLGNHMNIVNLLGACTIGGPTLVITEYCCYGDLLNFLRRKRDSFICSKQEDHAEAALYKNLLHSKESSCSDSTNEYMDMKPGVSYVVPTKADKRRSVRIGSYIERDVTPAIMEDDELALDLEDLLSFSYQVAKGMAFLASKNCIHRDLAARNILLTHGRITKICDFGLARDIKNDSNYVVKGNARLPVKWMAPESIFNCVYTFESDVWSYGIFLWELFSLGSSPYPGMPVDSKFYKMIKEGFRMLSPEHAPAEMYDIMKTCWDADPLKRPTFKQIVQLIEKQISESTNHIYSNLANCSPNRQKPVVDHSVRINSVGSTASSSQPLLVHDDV

SMILES	IC50 (PDGFRβ)	IC50 [1, 2]	IC50 (CSF1R)	IC50 (c-Kit)	IC50 (PDGFRα)	IC50 [1, 3]	IC50 ([1]; read-out: M07e Cell IC50)
Cc1ncc(C(=O)Nc2cc(C(=O)NCc3ccc(C(F)(F)F)cc3)c(F)cc2C)s1 [Example 268, N-[4-fluoro-2-methyl-5-[[4-(trifluoromethyl)phenyl]methylcarbamoyl]phenyl]-2-methyl-1,3-thiazole-5-carboxamide]	> 1000 nM	< 100 nM	> 1000 nM	< 100 nM	> 1000 nM		
Cc1ncc(C(=O)Nc2cc(C(=O)Nc3cnc(N4CCC[C@H]4C)cn3)c(F)cc2C)s1 [Example 84, N-(5-{N-5-[(R)-2-methyl-1-pyrrolidinyl]-2-pyrazinylcarbamoyl}-4-fluoro-2-tolyl)-2-methyl-1,3-thiazole-5-carboxamide]	> 1000 nM		> 1000 nM	< 100 nM	> 1000 nM	< 100 nM	
Nc1ncc(C(=O)Nc2cc(C(=O)Nc3ccc(C4CC4)nn3)c(F)cc2Cl)s1 [Example 201, 2-Amino-N-[2-chloro-5-[(6-cyclopropylpyridazin-3-yl)carbamoyl]-4-fluorophenyl]-1,3-thiazole-5-carboxamide]	100 to 1000 nM		100 to 1000 nM	< 100 nM	> 1000 nM	< 100 nM	
Cc1ncc(C(=O)Nc2cc(C(=O)Nc3cccc(CC(F)(F)F)n3)c(F)cc2C)s1 [Example 52, N-[4-fluoro-2-methyl-5-[[6-(2,2,2-trifluoroethyl)pyridin-2-yl]carbamoyl]phenyl]-2-methyl-1,3-thiazole-5-carboxamide]	> 1000 nM		> 1000 nM	< 100 nM	> 1000 nM	< 100 nM	
CCc1ccc(NC(=O)c2cc(NC(=O)c3cnc(N)s3)c(F)cc2F)nc1 [Example 214, 2-Amino-N-[5-[(5-ethylpyridin-2-yl)carbamoyl]-2,4-difluorophenyl]-1,3-thiazole-5-carboxamide]	> 1000 nM		> 1000 nM	< 100 nM	> 1000 nM	< 100 nM	
Cc1ncc(C(=O)Nc2cc(C(=O)Nc3ccnc(CC4CC4)n3)c(F)cc2C)s1 [Example 100, N-[5-[[2-(cyclopropylmethyl)pyrimidin-4-yl]carbamoyl]-4-fluoro-2-methylphenyl]-2-methyl-1,3-thiazole-5-carboxamide]	> 1000 nM		> 1000 nM	100 to 1000 nM	> 1000 nM	100 to 1000 nM	
Cc1ncc(C(=O)Nc2cc(C(=O)NCc3cc(F)cc(F)c3)c(F)cc2C)s1 [Example 264, N-[5-[(3,5-difluorophenyl)methylcarbamoyl]-4-fluoro-2-methylphenyl]-2-methyl-1,3-thiazole-5-carboxamide]	> 1000 nM	< 100 nM	> 1000 nM	< 100 nM	> 1000 nM		
Cc1ncc(C(=O)Nc2cc(C(=O)Nc3ccc(OCC(F)F)cn3)c(F)cc2C)s1 [Example 36, N-[5-[[5-(2,2-difluoroethoxy)pyridin-2-yl]carbamoyl]-4-fluoro-2-methylphenyl]-2-methyl-1,3-thiazole-5-carboxamide]	> 1000 nM		> 1000 nM	< 100 nM	> 1000 nM	< 100 nM	
COC[C@H]1CCCN1c1cnc(NC(=O)c2cc(NC(=O)c3cnc(C)s3)c(C)cc2F)cn1 [Example 90, N-(5-{N-5-[(R)-2-(methoxymethyl)-1-pyrrolidinyl]-2-pyrazinylcarbamoyl}-4-fluoro-2-tolyl)-2-methyl-1,3-thiazole-5-carboxamide]	> 1000 nM		> 1000 nM	< 100 nM	> 1000 nM	100 to 1000 nM	
Cc1cc(F)c(C(=O)Nc2ccc(F)cc2)cc1NC(=O)c1cnc(N)s1 [Example 233, 2-Amino-N-[4-fluoro-5-[(4-fluorophenyl)carbamoyl]-2-methylphenyl]-1,3-thiazole-5-carboxamide]	> 1000 nM		> 1000 nM	< 100 nM	> 1000 nM	< 100 nM	
Cc1ncc(C(=O)Nc2cc(C(=O)Nc3cnc(OC4CC(F)(F)C4)cn3)c(F)cc2C)s1 [Example 32, N-[5-[[5-(3,3-difluorocyclobutyl)oxypyrazin-2-yl]carbamoyl]-4-fluoro-2-methylphenyl]-2-methyl-1,3-thiazole-5-carboxamide]	> 1000 nM		> 1000 nM	< 100 nM	> 1000 nM	< 100 nM	
Cc1ncc(C(=O)Nc2cc(C(=O)NCc3ccc(OC(F)(F)F)c(F)c3)c(F)cc2C)s1 [Example 269, N-[4-fluoro-5-[[3-fluoro-4-(trifluoromethoxy)phenyl]methylcarbamoyl]-2-methylphenyl]-2-methyl-1,3-thiazole-5-carboxamide]	> 1000 nM	< 100 nM	> 1000 nM	100 to 1000 nM	> 1000 nM		
Cc1ncc(C(=O)Nc2cc(C(=O)Nc3cnc(N4CC(O)C4)cn3)c(F)cc2C)s1 [Example 71, N-(4-fluoro-5-((5-(3-hydroxyazetidin-1-yl)pyrazin-2-yl)carbamoyl)-2-methylphenyl)-2-methylthiazole-5-carboxamide]	> 1000 nM		> 1000 nM	< 100 nM	> 1000 nM	< 100 nM	
Cc1ncc(C(=O)Nc2cc(C(=O)NCc3ccc(OC(F)(F)F)cc3F)c(F)cc2C)s1 [Example 270]	> 1000 nM	100 to 1000 nM	> 1000 nM	100 to 1000 nM	> 1000 nM		
Cc1ncc(C(=O)Nc2cc(C(=O)Nc3cnc(N4CCC(F)(F)C4)cn3)c(F)cc2C)s1 [Example 92, N-[5-[[5-(3,3-difluoropyrrolidin-1-yl)pyrazin-2-yl]carbamoyl]-4-fluoro-2-methylphenyl]-2-methyl-1,3-thiazole-5-carboxamide]	> 1000 nM		> 1000 nM	< 100 nM	> 1000 nM	< 100 nM	
Cc1ncc(C(=O)Nc2cc(C(=O)Nc3ccnc(C(F)(F)F)c3)c(F)cc2C)s1 [Example 25, N-[4-Fluoro-2-methyl-5-[[2-(trifluoromethyl)pyridin-4-yl]carbamoyl]phenyl]-2-methyl-1,3-thiazole-5-carboxamide]	100 to 1000 nM		> 1000 nM	< 100 nM	> 1000 nM	< 100 nM	
Cc1ncc(C(=O)Nc2cc(C(=O)Nc3cnc(N4CC[C@@H](O)C4)cn3)c(F)cc2C)s1 [Example 72, (R)—N-(4-fluoro-5-((5-(3-hydroxypyrrolidin-1-yl)pyrazin-2-yl)carbamoyl)-2-methylphenyl)-2-methylthiazole-5-carboxamide]	> 1000 nM		> 1000 nM	< 100 nM	> 1000 nM	< 100 nM	
Cc1ncc(C(=O)Nc2cc(C(=O)Nc3ccc(CC(F)(F)F)cn3)c(Cl)cc2C)s1 [Example 99, N-[4-chloro-2-methyl-5-[[5-(2,2,2-trifluoroethyl)pyridin-2-yl]carbamoyl]phenyl]-2-methyl-1,3-thiazole-5-carboxamide]	> 1000 nM		> 1000 nM	100 to 1000 nM	> 1000 nM		100 to 1000 nM
